Assays:
seedling mold = assay: Fungal plug growth on jasmonate-infused PDA plates; type: cell-based, Trichoderma ghanense; settings: for seedling mold growth: 1 mM, 4.25 mM, 10 mM in PDA, 72 hours post inoculation
Protocol: (§1) MDJ (TCI, CAS No.: 24851-98-7) and CJ were infused into potato dextrose agar (PDA, VWR Cat No.: 90003-494) petri dishes (100×15 mm VWR, Cat No: 25384-094) at concentrations ranging from 1 mM, 4.25 mM, and 10 mM. Each treatment was prepared using a technical grade stock solution of pure chemical (CJ or MDJ) diluted with TWEEN®-20 (VWR, CAS No.: […]). Culturable oyster mushroom and seedling mold served to create fungal mycelial plugs using a sterile 1 mL pipette tip (Eppendorf, Cat No.: 022491458) held upside down. The tips were used to make circle excisions (i.e., fungal plugs) from a mycelial mat grown on PDA with no biochemical infusions. Fungal pugs were then transferred to PDA infused with varying concentrations of CJ or MDJ, and control plates (no CJ or MDJ infusion) to monitor fungal growth at room temperature over time.
To compare the efficacy of MDJ and MeJA at inhibiting the same seedling mold as used in the experiment above, a second experiment was conducted using PDA plates infused with either MDJ or MeJA at different concentrations. All plates were generated and inoculated as described above and incubated at room temperature under identical conditions. Shown in FIGS. 9A-9C are plates of seedling mold 72 hours post fungal inoculation. Control plates are shown on the top row, followed by concentrations of MeJA (left) and MDJ (right) in duplicate at 1 mM (FIG. 9A), 4.25 mM (FIG. 9B), and 10 mM (FIG. 9C). […] Subsequent sequence analysis identified the “seedling mold” as Trichoderma ghanense.

[1] = test system: high-CBD hemp variety Cherry; assay: Low-volume drone foliar applications of MeJA or MDJ on field grown high-CBD hemp, cannabinoid and terpene analysis; type: in vivo, Cannabis spp.; settings: about 2 gallons per acre, at harvest; for increase in the ratio of CBD:THC compared to the Control group / alpha bisabolol change compared to the Control group: 7.5 mM; for increase in the ratio of CBD:THC compared to the Control group: morning applications about every 14 days
Description: In previous foliar application experiments, plants were sprayed until the leaves were dripping. In order to assess the plant physiological response to low-volume foliar applications of two jasmonate elicitors, methyl jasmonate (MeJA) and methyl dihydro-jasmonate (MDJ), an outdoor experiment on field grown, high-CBD hemp was designed and performed during the summer of 2019 using an unmanned aerial drone as the application device. A single high-CBD hemp variety, “Cherry” (CBDRx, Longmont, Colo.) was used in an organic field plot in Pueblo, Colo., which was subdivided into four spatially separated quadrants of approximately 0.5 acres each as determined by drone and GPS mapping. Each 0.5-acre quadrant was assigned a treatment group, and the middle area of the entire plot, approximately 1 acre in area, was used as a “control” section of the field. Plants in the Control group received sprays of water and TWEEN®-20 only, identical to the treatment groups except for the exclusion of any jasmonate (i.e., [0 mM] MeJA and MDJ) active ingredients. MeJA and MDJ were applied at approximately 2 gallons per acre. In comparison, previous foliar applications wherein the plant was sprayed until the leaves dripped would equate to between 50-100 gallons per acre.
Treatments were separated into such “morning” and “evening” applications in an attempt to determine if the time of day influenced the plant response to the treatments. The four treatment groups were as follows: TIM=[7.5 mM] MDJ foliar applications in the morning; TIE=[7.5 mM] MDJ foliar applications in the evening; T2M=[7.5 mM] MeJA foliar applications in the morning; T2E [7.5 mM] MeJA foliar applications in the evening. All treatment groups were prepared the day of the application, and all applications were made successively with the same drone device. To reduce potential cross-contamination of the drone sprayer equipment, an acetic acid solution (5%) was run through the applicator equipment between each treatment application and control spray application, followed by plain water as a final rinse.
Plants were planted and allowed to grow in the normal fashion until the onset of flowering, which occurred around Jul. 25, 2019. At that point, foliar applications of the treatment were made approximately every 14 days with adjustments to the schedule as needed to avoid applying treatments on days with high winds, rain, or other suboptimal conditions for drone flight or treatment applications. Approximately every 14 days during the flowering cycle, flower samples from three randomly selected plants in each experimental group were taken, dried, and stored for analytical testing; however, the focus of this study was to determine the effect of the treatment groups versus the control group at harvest. Final flower samples were taken from 10 randomly selected plants in each experimental group on Sep. 12, 2019, labelled accordingly, dried, and sent to a third part commercial cannabis testing lab (Pro Verde, Milford, Mass.) for chemical analysis of the cannabinoids and terpene content individually using liquid chromatography (LC) and headspace gas chromatography (HS-GC), respectively. All samples were harvested on the day of a scheduled treatment prior to treatment.
Statistical analysis of the quantitative terpene data from plant samples taken at harvest was performed using R statistical software and corrected post-hoc using Tukey HSD method. For cannabinoid data from the same plant samples, ANOVA analysis was performed in Microsoft Excel with Tukey HSD post-hoc corrections.

[2] = test system: hemp clones cv. Cherry in the vegetative stage; assay: Root drench of MeJA or MDJ, phytotoxicity; type: in vivo, Cannabis spp.; settings: for plants deceased in 72 hours: 250 mL, n=4; for phytotoxicity to plants in the vegetative stage: root drench, concentrations above 10 mM, within 72 hours
Protocol: To investigate if higher concentrations of jasmonate elicitors would be tolerated in cannabis by root drench, four different concentrations, [7.5 mM], [10 mM], [15 mM] and [20 mM] were applied to hemp clones (n=4 per treatment group, cv.: Cherry, CBDRx) in the vegetative stage. Treatment concentrations were prepared from methyl dihydrojasmonate (MDJ, TCI, CAS No.: 24851-98-7) and methyl Jasmonate (MeJA, TCI, CAS No.: […]) with 1% TWEEN®-20 added (VWR, CAS No.: […]).
The roots of each clone in each treatment group were treated with 250 mL of each compound once per week. Plants were grown under a total of 12 Boost (Thrive Agritech, NY) 130-watt LED lights set to 18L: 6D photoperiod during the vegetative phase (2 weeks) or until phytotoxicity observed.

Diaporthe rudis = assay: Mold growth on jasmonate-infused plates, mold 3 isolated from avocado; type: cell-based; settings: various concentrations in plates
Protocol: as §1
Based on the above results in Cannabis spp., additional fungi from various crops was sampled and tested. Plates comprising various concentrations of MDJ or MJ were prepared as described above.

grey mold = assay: Fungal plug growth on jasmonate-infused PDA plates; type: cell-based, Rhizopus stolonifera; settings: for grey mold growth: 1 mM, 4.25 mM, 10 mM in PDA, 72 hours post inoculation
Protocol: as §1
A grey mold was also tested (FIGS. 10A-10D). All plates were generated and inoculated as described above and incubated at room temperature under identical conditions. Shown in […] are plates of grey mold 72 hours post fungal inoculation. Control plates are shown on the top row, followed by concentrations of MeJA (left) and MDJ (right) in duplicate at […] (FIG. 10A), 4.25 mM (FIG. 10B), and 10 mM (FIG. 10C). […] While it was initially hypothesized that the grey mod was a species of Botrytis, subsequent sequence analysis identified the mold as Rhizopus stolonifera.

[3] = at the 1 mM concentration, 72 hours

Structure (SMILES) | seedling mold growth (seedling mold) | increase in the ratio of CBD:THC compared to the Control group [1] | alpha bisabolol change compared to the Control group [1] | plants deceased in 72 hours ([2]; root drench 15 mM) | plants deceased in 72 hours ([2]; root drench 20 mM) | phytotoxicity to plants in the vegetative stage [2] | growth of mold isolated from avocado (mold 3) (Diaporthe rudis) | grey mold growth (grey mold) | efficacy at inhibiting grey mold, MeJA compared with MDJ (grey mold; at 4.25 mM and 10 mM concentrations, 72 hours) | seedling mold growth compared to control (seedling mold; all concentrations (1 mM, 4.25 mM, 10 mM) in PDA, 72 hours and 10 days) | efficacy at inhibiting seedling mold, MDJ compared with MeJA (seedling mold; [3]) | alpha-humulene increase compared to the Control group ([1]; Treatment 1, 7.5 mM) | beta-caryophyllene increase compared to the Control group ([1]; Treatment 1, 7.5 mM) | guaiol increase compared to the Control group ([1]; Treatment 1, 7.5 mM) | trans-nerolidol increase compared to the Control group ([1]; Treatment 1, 7.5 mM) | plants deceased in 72 hours ([2]; root drench 10 mM) | efficacy at inhibiting grey mold, MDJ compared with MeJA (grey mold; [3])
CC/C=C\C[C@H]1C(=O)CC[C@@H]1CC(=O)OC [MeJA, Methyl Jasmonate] | inhibited | 1.76% | decreased | three out of four | three out of four | phytotoxic | effective at preventing the growth | inhibited | more effective |  |  |  |  |  |  |  | 
CCCCCC1C(=O)CCC1CC(=O)OC (stereo not shown) [MDJ, methyl dihydrojasmonate] | inhibited | 2.53% | 17.2% | all four | all four | phytotoxic | effective at preventing the growth | inhibited |  | showed inhibition | more effective | 3.15% | 3.3% | 5.66% | 66.66% | three out of four | more effective

Reference: patent US11638427B2, “Methods and compositions for altering secondary metabolites in plants” (Impello Biosciences, Inc, priority 2020, dated 2023)
